# Measured values: patent publication US7109175B1, “Specific steady-state R-type CA2+ channel blockers and use thereof” (Universite de Sherbrooke, priority 2000, dated 2006)
# Entries after “also recorded” stand apart in the source; their conditions may differ.
# Legend:
# [1] = test system: R-type Ca^2+ channel; assay: Ca2+ channel blockers tested on the R-type channel (data not shown); format: cell-based
# [2] = test system: writhing response in mice; assay: Writhing response in mice (acetic acid, acetylcholine, kaolin); format: in vivo; conditions: i.p., mice; for ID50 ACETYLCHOLINE: acetylcholine-induced writhes; for ID50 KAOLIN: kaolin-induced writhes
# From the text: The antinociceptive actions of compound MV 8612 and MV 8608 were investigated in different models of nociception in mice as reported previously (Vaz et al., 1996, J. Pharmacol. Exp. Ther. 278:304–312).
# [3] = test system: tail-flick; assay: Tail-flick in mice; format: in vivo; conditions: i.p.
# [4] = test system: MG63 and FAOS-2; assay: Spontaneous proliferation of human osteoblast cancer lines; format: cell-based; conditions: 10^−8M
# [5] = test system: L-type Ca^2+ channel; assay: Isradipine on L-type channel (data not shown); format: cell-based; conditions: read-out: ED50, block of L-type Ca2+ channel
# [6] = test system: anaesthetized rat; assay: Anaesthetized rat, blood pressure and PAF hypotension; format: in vivo; conditions: rat, results not shown
# From the text: On the other hand, in vivo administered PAF, induced a marked hypotension in the anaesthetized rat and guinea pig.
# [7] = test system: vasoconstriction, hypotension and airways hypereactivity induced by PAF, ET-1 and organ transplantation; assay: In vivo tests in rats, rabbits and guinea pigs (summary); conditions: rabbits, guinea pigs
# [8] = test system: circulating ET-1, blood flow, hypertension
# [9] = test system: plasma ET-1, attacks of Raynaud's phenomenon; conditions: patients, La Civita et al. 1996; cited from earlier work
smiles,measurement,setting,value
COc1ccc([C@@H]2Sc3cc(Cl)ccc3N(CCN(C)C)C(=O)[C@@H]2OC(C)=O)cc1 [Clentiazem],block of R-type Ca2+ channel,[1],none were found to block the R-type Ca^2+
COc1ccc(CCN(C)CCCC(C#N)(c2cc(OC)c(OC)c(OC)c2)C(C)C)cc1OC (stereo not shown) [D600],block of R-type Ca2+ channel,[1],none were found to block the R-type Ca^2+
COc1cccc(CCN(C)CCCC(C#N)(c2ccc(OC)c(OC)c2)C(C)C)c1 (stereo not shown) [D888],block of R-type Ca2+ channel,[1],none were found to block the R-type Ca^2+
COc1ccc([C@@H]2Sc3ccccc3N(CCN(C)C)C(=O)[C@@H]2OC(C)=O)cc1 [Diltiazem],block of R-type Ca2+ channel,[1],none were found to block the R-type Ca^2+
"COc1ccc2c(c1)c(CC(=O)O)c(C)n2C(=O)c1ccc(Cl)cc1 [INDOMETHACIN, indomethacin, reference compound]",ID50 ACETIC ACID,[2]; acetic acid-induced writhes,1.2 (0.9–1.4) μmol/kg
same,ID50 ACETYLCHOLINE,[2],0.8 (0.5–1.0) μmol/kg
same,ID50 KAOLIN,[2],1.6 (1.4–1.8) μmol/kg
"CN1CC[C@]23c4c5ccc(O)c4O[C@H]2[C@@H](O)C=C[C@H]3[C@H]1C5 [MORPHINE, morphine, reference compound]",ID50 ACETYLCHOLINE,[2],1.4 (1.0–1.8) μmol/kg
same,ID50 KAOLIN,[2],1.4 (1.2–1.7) μmol/kg
same,ID50 TAIL-FLICK,[3],6.0(5.7–6.4) μmol/kg
COc1ccc(CCN(C)CCCC(C#N)(c2ccc(OC)c(OC)c2)C(C)C)cc1OC (stereo not shown) [Verapamil],block of R-type Ca2+ channel,[1],none were found to block the R-type Ca^2+
COC(=O)C1=C(C)NC(C)=C(C(=O)OC(C)C)C1c1cccc2nonc12 (stereo not shown) [isradipine],spontaneous cell proliferation,[4],reduced spontaneous cell proliferation
same,EC50,[5],~1000 nM
same,intrinsic hypotensive effect,[6],marked intrinsic hypotensive properties
same,side effects in vivo,[7],exhibited significant side effects
same,hypertension and ET-1 plasma elevation associated with cyclosporin A (Sandimmune) treatment,"[8]; allograft transplant, listed as Lomir/Dynacirc",blocked hypertension and ET-1 plasma elevation; also recorded: blocks the elevated circulating endothelin level
same,increase of circulating ET-1 and decrease of blood flow,"[8]; organ transplants, rabbit, cyclosporin-A treated",restored ET-1 and blood flow levels
same,"elevated plasma ET-1 level and frequency, severity of acute attacks of Raynaud's phenomenon",[9],significantly reduced
COC(=O)C1=C(C)NC(C)=C(C(=O)OC)C1c1ccccc1[N+](=O)[O-] [nifedipine],intrinsic hypotensive effect,[6],marked intrinsic hypotensive properties
